Results published in paper PMC11851430, “Workflow for E3 Ligase Ligand Validation for PROTAC Development” (ACS Chemical Biology, 2025).

How the values were obtained:
[1] = target: T1, MAP2K6A (Homo sapiens, UniProt P52564); assay: DSF assay; assay type: binding; conditions: 20 µM compound
T1 construct: purchased in-house DSF panel (SGC-style construct names; the trailing A/B is a construct suffix)
T1 sequence (P52564 1-334): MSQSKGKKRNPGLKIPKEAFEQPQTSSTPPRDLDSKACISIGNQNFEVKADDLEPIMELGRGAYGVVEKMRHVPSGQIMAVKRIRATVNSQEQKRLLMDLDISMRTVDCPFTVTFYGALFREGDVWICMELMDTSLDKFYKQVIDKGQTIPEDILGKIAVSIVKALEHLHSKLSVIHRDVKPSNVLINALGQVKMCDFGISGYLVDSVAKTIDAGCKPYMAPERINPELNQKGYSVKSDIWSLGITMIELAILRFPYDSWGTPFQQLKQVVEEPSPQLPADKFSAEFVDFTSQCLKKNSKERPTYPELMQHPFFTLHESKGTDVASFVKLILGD

[2] = test system: BRPF1A; assay: DSF assay; assay type: binding; conditions: 20 µM compound
[3] = target: T2, DYRK2A (Homo sapiens, UniProt Q92630); assay: DSF assay; assay type: binding; conditions: 20 µM compound
T2 construct: purchased in-house DSF panel (SGC-style construct names; the trailing A/B is a construct suffix)
T2 sequence (Q92630 146-552): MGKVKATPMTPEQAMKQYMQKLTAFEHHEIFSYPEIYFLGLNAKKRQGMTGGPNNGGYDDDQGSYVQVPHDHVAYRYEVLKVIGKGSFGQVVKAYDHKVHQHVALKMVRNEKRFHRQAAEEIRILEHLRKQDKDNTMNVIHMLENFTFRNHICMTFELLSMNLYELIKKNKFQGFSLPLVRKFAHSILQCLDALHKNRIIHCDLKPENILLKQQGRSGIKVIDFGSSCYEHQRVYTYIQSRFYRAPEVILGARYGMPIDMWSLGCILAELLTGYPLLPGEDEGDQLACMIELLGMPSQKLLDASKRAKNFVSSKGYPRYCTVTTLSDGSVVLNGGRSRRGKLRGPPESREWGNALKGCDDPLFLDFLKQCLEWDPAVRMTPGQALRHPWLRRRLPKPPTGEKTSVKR

[4] = target: T3, PIM3A (Homo sapiens, UniProt Q86V86); assay: DSF assay; assay type: binding; conditions: 20 µM compound
T3 construct: purchased in-house DSF panel (SGC-style construct names; the trailing A/B is a construct suffix)

[5] = target: T4, BMXA (Homo sapiens, UniProt P51813); assay: DSF assay; assay type: binding; conditions: 20 µM compound
T4 construct: purchased in-house DSF panel (SGC-style construct names; the trailing A/B is a construct suffix)

[6] = target: T5, STK4A (Homo sapiens, UniProt Q13043); assay: DSF assay; assay type: binding; conditions: 20 µM compound
T5 construct: purchased in-house DSF panel (SGC-style construct names; the trailing A/B is a construct suffix)
T5 sequence (Q13043 1-311): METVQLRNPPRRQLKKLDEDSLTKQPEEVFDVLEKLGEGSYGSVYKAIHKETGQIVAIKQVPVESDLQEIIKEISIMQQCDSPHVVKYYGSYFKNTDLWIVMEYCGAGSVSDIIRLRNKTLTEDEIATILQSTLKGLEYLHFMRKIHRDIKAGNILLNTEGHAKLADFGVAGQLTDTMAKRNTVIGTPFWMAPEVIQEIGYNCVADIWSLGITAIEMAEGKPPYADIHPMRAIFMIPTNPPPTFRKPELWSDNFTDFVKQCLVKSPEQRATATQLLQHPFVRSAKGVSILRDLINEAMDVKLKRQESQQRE

[7] = target: T6, AURKA^HiBiT (Homo sapiens, UniProt O14965); assay: HiBiT assay, MV4-11 cells expressing AURKA^HiBiT; assay type: cell-based; conditions: 6 h; for rescue of AURKA degradation by cotreatment with proteasome inhibitor MG132 / rescue of AURKA levels by cotreatment with neddylation inhibitor MLN4924: MV4-11 AURKA^HiBiT cells; for AURKA^HiBiT protein levels: MV4-11 cells
T6 construct: expressed in transfected cells
T6 sequence (O14965 1-403): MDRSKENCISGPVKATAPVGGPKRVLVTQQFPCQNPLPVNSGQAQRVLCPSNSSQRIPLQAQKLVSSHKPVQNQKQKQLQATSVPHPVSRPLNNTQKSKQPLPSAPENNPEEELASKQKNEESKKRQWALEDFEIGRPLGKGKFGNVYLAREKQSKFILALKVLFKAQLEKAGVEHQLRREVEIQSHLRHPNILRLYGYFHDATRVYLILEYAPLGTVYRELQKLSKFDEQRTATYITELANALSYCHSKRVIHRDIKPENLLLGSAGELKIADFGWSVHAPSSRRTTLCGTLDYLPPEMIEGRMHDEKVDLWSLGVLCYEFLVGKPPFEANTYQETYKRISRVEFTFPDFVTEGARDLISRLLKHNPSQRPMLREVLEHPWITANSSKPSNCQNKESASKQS
Protocol: The blots were incubated with respective primary antibodies at 1:1000 dilution (Cell Signaling technologies: Aurora A (D3E4Q), ITK (2F12) and GAPDH (D4C6R)) at 4 °C overnight. The blots were washed with TBS-T thrice and incubated with 1:5000 dilution of horseradish peroxidase (HRP)-labelled respective secondary antibodies (Cell Signaling technologies, Anti- […]
The blots were washed with TBS-T thrice and then incubated with chemiluminescent HRP substrate (Bio-Rad) for 2 minutes. The blots were imaged and the signals were detected using the Amersham ImageQuant 800 (Cytiva).
Cell culture. Human MV4-11 ([…]) and human Jurkat ([…]) cells were cultured in RPMI- […]
°C in 5% CO2. Both media were supplemented with 10% FBS and 1% penicillin/streptomycin. […]
Cell line generation. The stable cell line MV4-11 AURORA−HiBiT was generated as previously described.14 Lentiviral infection was used to generate the stable Jurkat HiBiT cell line. […] HiBiT Measurements. HiBiT assay was performed as described previously. 14 Briefly, MV4-11 and Jurkat HiBiT cells were seeded and treated with compounds for the indicated time. Nano-Glo HiBiT Lytic Detection System (Promega) was used for the assay and luminescence was measured on a Tecan Spark Multiplate reader (Tecan). DC50s were calculated using the dose-response (four parameters) equation in Prism (GraphPad).

T4 sequence (P51813 411-675): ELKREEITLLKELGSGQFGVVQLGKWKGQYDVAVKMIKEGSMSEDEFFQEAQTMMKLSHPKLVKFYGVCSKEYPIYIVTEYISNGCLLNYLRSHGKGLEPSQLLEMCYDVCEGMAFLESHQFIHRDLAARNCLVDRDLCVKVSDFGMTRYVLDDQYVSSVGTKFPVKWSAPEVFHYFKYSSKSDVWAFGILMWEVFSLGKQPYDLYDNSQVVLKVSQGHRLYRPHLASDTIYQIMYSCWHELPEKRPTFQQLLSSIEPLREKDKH

Structure (SMILES) | ΔTm at 20 µM [1] | ΔTm [2] | ΔTm at 20 µM [3] | ΔTm at 20 µM [4] | ΔTm at 20 µM [5] | ΔTm at 20 µM [6] | rescue of AURKA degradation by cotreatment with proteasome inhibitor MG132 [7] | rescue of AURKA levels by cotreatment with neddylation inhibitor MLN4924 [7] | AURKA^HiBiT protein levels [7]
CC(C)(C)OC(=O)NCCOCCOCCOCCOCCC(=O)N1CCN(c2cc(Nc3cc(C4CC4)[nH]n3)nc(Nc3ccc(CC#N)cc3)n2)CC1 [4-L] | 5.77 °C | 1.15 °C | 7.18 °C | -4.95 °C | 5.53 °C | 9.02 °C |  |  | 
Cc1ncsc1-c1ccc(CNC(=O)[C@@H]2C[C@@H](O)CN2C(=O)[C@@H](NC(=O)CCOCCOCCOCCN2CCN(c3cc(Nc4cc(C5CC5)[nH]n4)nc(Nc4ccc(CC#N)cc4)n3)CC2)C(C)(C)C)cc1 [4-a] |  |  |  |  |  |  | complete rescue | only partial rescue | dose-dependent degradation of AURKA
Cc1ncsc1-c1ccc(CNC(=O)[C@@H]2C[C@H](O)CN2C(=O)[C@@H](NC(=O)CCOCCOCCOCCN2CCN(c3cc(Nc4cc(C5CC5)[nH]n4)nc(Nc4ccc(CC#N)cc4)n3)CC2)C(C)(C)C)cc1 [4-a^neg] |  |  |  |  |  |  |  |  | weak reduction of AURKA levels
CC(C)(C)OC(=O)NCCCOCCOCCOCCCNC(=O)c1cc(Nc2cc(C3CC3)[nH]n2)nc(Nc2ccc(CC#N)cc2)n1 [5-L] | 5.96 °C | -0.68 °C | 7.69 °C | 0.61 °C | 1.62 °C | 7.44 °C |  |  | 
Cc1ncsc1-c1ccc(CNC(=O)[C@@H]2C[C@@H](O)CN2C(=O)[C@@H](NC(=O)CCOCCOCCOCCOCCN2CCN(c3ccc(Nc4ncc(Cl)c(Nc5ccccc5C(N)=O)n4)cc3)CC2)C(C)(C)C)cc1 [6-b] |  |  |  |  |  |  | complete rescue | only partial rescue | dose-dependent degradation of AURKA
Cc1ncsc1-c1ccc(CNC(=O)[C@@H]2C[C@H](O)CN2C(=O)[C@@H](NC(=O)CCOCCOCCOCCOCCN2CCN(c3ccc(Nc4ncc(Cl)c(Nc5ccccc5C(N)=O)n4)cc3)CC2)C(C)(C)C)cc1 [6-b^neg] |  |  |  |  |  |  |  |  | weak reduction of AURKA levels
CCOC(=O)c1cc(Nc2cc(C3CC3)[nH]n2)nc(Nc2ccc(CC#N)cc2)n1 [compound 5] | 8.41 °C | -0.64 °C | 7.58 °C | -0.28 °C | 2.01 °C | 8.99 °C |  |  | 
